Experimental data published in US20210253568A1, “AZAINDOLE DERIVATIVES AS RHO-KINASE INHIBITORS” (CHIESI FARMACEUTICI S.p.A., priority 2018, published 2021).

Experiments:
[1] = molecular target: ROCK 1 (Homo sapiens, UniProt Q13464); experiment: In vitro Rho kinase inhibitory activity assay (ADP-Glo), Rho kinase 1; assay type: biochemical; settings: Ki by Cheng-Prusoff from IC50; 10 μM ATP, 25° C., expressed as range of activity
Protocol: (§1) The effectiveness of compounds of the present invention to inhibit Rho kinase activity can be determined in a 10 μl assay containing 40 mM Tris pH7.5, 20 mM MgCl2 0.1 mg/mi BSA, 50 μM DTT and 2.5 μM peptide substrate (Myelin Basic Protein) using an ADP-Glo kit (Promega). Compounds were dissolved in DMSO such that the final concentration of DMSO was 1% in the assay. All reactions/incubations are performed at 25° C. Compound (2 ul) and either Rho kinase 1 or 2 (4 μl) were mixed and incubated for 30 mins. Reactions were initiated by addition of ATP (4 μl) such that the final concentration of ATP in the assay was 10 μM. After a 1 hour incubation 10 μl of ADP-Glo Reagent was added and after a further 45 minute incubation 20 ul of Kinase Detection Buffer was added and the mixture incubated for a further 30 minutes. The luminescent signal was measured on a luminometer. […] Compounds were tested in dose-response format and the inhibition of kinase activity was calculated at each concentration of compound. To determine the IC50 (concentration of compound required to inhibit 50% of the enzyme activity) data were fit to a plot of % inhibition vs Log10 compound concentration using a sigmoidal fit with a variable slope and fixing the maximum to 100% and the minimum to 0%. To determine the Ki values the Cheng-Prusoff equation was utilized (Ki=IC50/(1+[S]/Km).

[2] = molecular target: ROCK 2 (Homo sapiens, UniProt O75116); experiment: In vitro Rho kinase inhibitory activity assay (ADP-Glo), Rho kinase 2; assay type: biochemical; settings: Ki by Cheng-Prusoff from IC50; 10 μM ATP, 25° C., expressed as range of activity
Protocol: as §1

ROCK 2, sequence (O75116 whole entry): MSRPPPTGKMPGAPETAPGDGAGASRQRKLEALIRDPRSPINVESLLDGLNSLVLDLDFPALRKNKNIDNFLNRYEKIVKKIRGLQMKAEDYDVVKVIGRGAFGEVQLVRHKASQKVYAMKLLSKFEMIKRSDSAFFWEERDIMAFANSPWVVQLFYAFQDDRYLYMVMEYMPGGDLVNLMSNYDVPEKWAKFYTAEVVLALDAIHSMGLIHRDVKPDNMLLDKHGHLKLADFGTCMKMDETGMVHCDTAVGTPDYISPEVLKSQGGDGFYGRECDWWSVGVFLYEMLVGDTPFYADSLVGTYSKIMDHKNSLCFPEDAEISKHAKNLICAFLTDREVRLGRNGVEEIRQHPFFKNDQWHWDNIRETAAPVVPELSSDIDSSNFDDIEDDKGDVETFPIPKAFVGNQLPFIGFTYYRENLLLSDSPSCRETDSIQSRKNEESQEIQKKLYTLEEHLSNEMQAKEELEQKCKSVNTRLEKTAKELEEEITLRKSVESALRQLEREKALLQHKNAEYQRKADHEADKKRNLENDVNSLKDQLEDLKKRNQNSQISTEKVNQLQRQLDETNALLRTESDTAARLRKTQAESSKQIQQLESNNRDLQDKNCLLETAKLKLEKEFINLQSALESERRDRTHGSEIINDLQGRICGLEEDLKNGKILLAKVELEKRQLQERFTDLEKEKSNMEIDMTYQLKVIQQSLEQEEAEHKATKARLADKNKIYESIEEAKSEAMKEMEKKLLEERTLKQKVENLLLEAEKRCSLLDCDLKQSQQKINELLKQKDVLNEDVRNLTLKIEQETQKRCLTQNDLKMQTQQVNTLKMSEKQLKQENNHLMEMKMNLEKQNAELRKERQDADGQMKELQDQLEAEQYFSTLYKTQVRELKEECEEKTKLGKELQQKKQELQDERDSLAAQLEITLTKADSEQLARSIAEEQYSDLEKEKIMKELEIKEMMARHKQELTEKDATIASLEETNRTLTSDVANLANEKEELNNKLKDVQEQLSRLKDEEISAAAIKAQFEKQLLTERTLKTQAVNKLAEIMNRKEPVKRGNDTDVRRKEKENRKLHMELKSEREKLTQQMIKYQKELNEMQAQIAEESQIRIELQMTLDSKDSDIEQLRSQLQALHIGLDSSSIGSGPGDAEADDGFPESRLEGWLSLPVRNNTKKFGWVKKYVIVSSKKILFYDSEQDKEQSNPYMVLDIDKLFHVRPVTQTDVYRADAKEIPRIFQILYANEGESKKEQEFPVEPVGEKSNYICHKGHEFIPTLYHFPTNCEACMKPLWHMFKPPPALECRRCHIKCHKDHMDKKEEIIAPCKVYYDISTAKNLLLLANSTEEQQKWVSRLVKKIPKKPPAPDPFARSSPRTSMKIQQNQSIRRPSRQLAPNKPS
ROCK 1, sequence (Q13464 whole entry): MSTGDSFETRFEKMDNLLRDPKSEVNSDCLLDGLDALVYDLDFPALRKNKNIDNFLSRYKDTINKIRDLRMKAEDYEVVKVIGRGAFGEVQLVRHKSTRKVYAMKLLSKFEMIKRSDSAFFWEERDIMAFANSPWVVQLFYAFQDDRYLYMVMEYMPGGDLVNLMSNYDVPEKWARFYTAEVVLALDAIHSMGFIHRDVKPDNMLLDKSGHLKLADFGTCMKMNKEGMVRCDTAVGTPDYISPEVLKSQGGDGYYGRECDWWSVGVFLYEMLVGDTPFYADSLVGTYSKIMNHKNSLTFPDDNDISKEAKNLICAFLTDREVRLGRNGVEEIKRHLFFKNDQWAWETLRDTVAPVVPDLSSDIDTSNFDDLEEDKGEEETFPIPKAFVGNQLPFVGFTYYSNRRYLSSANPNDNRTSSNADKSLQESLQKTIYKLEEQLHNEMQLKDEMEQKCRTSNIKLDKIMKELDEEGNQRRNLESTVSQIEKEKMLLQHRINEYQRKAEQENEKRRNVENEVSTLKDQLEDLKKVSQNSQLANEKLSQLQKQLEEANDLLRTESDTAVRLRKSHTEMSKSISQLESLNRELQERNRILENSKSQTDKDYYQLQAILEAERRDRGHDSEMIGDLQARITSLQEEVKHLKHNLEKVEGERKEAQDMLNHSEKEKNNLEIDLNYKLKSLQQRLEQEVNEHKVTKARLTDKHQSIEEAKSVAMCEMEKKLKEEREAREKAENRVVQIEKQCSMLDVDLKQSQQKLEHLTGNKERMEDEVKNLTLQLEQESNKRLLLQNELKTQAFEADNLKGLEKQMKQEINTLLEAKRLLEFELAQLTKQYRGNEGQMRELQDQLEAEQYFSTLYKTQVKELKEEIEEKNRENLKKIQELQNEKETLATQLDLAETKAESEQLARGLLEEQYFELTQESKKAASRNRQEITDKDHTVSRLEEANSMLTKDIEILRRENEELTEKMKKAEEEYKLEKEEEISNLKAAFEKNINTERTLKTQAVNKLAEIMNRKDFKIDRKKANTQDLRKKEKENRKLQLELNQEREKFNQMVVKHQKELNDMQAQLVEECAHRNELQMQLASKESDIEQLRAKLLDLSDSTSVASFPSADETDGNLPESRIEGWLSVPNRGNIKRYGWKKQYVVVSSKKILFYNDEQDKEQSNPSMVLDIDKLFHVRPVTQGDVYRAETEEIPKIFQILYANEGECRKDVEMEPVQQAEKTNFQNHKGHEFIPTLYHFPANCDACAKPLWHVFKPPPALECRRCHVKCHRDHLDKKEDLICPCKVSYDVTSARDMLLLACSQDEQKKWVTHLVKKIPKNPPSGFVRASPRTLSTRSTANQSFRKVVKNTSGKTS

| Structure (SMILES) | Ki [1] [nM] | Ki [2] [nM] |
| --- | --- | --- |
| c1cncc(CNc2cc(-c3c[nH]c4nccc(Oc5ccc6c(c5)CNCC6)c34)ccn2)c1 [Example 16, N-(pyridin-3-ylmethyl)-4-(4-((1,2,3,4-tetrahydroisoquinolin-7-yl)oxy)-1H-pyrrolo[2,3-b]pyridin-3-yl)pyridin-2-amine] | < 3 | < 3 |
| O=C(Nc1cc(-c2c[nH]c3nccc(Oc4ccc5c(c4)CNCC5)c23)ccn1)C1CCOCC1 [Example 41, N-(4-(4-((1,2,3,4-tetrahydroisoquinolin-7-yl)oxy)-1H-pyrrolo[2,3-b]pyridin-3-yl)pyridin-2-yl)tetrahydro-2H-pyran-4-carboxamide] | < 3 | < 3 |
| O=C(NCc1ccccc1)c1cc(-c2c[nH]c3nccc(Oc4ccc5c(c4)CNCC5)c23)on1 [Example 13, N-benzyl-5-(4-((1,2,3,4-tetrahydroisoquinolin-7-yl)oxy)-1H-pyrrolo[2,3-b]pyridin-3-yl)isoxazole-3-carboxamide] | 3 to 30 | < 3 |
| C[C@@H](Nc1cc(-c2c[nH]c3nccc(Oc4ccc5c(c4)CNCC5)c23)ncn1)c1ccccc1 [Example 52, (R)-N-(1-phenylethyl)-6-(4-((1,2,3,4-tetrahydroisoquinolin-7-yl)oxy)-1H-pyrrolo[2,3-b]pyridin-3-yl)pyrimidin-4-amine] | < 3 | < 3 |
| NCc1ccc(Oc2ccnc3[nH]cc(-c4cnn(Cc5ccccc5)c4)c23)c(F)c1 [Example 22, (4-((3-(1-benzyl-1H-pyrazol-4-yl)-1H-pyrrolo[2,3-b]pyridin-4-yl)oxy)-3-fluorophenyl)methanamine] | < 3 | < 3 |
| NCc1cc(F)c(Oc2ncnc3[nH]cc(-c4ccnc(NCc5ccccc5)c4)c23)c(F)c1 [Example 5, 4-(4-(4-(aminomethyl)-2,6-difluorophenoxy)-7H-pyrrolo[2,3-d]pyrimidin-5-yl)-N-benzylpyridin-2-amine] | < 3 | < 3 |
| CC1(C(=O)Nc2cc(-c3c[nH]c4nccc(Oc5ccc6c(c5)CNCC6)c34)ccn2)CC1 [Example 44, 1-methyl-N-(4-(4-((1,2,3,4-tetrahydroisoquinolin-7-yl)oxy)-1H-pyrrolo[2,3-b]pyridin-3-yl)pyridin-2-yl)cyclopropanecarboxamide] | 3 to 30 | < 3 |
| NC(C(=O)Nc1cc(-c2c[nH]c3nccc(Oc4ccc5c(c4)CNCC5)c23)ccn1)c1ccccc1 (centres unmarked) [Example 45, 2-amino-2-phenyl-N-(4-(4-((1,2,3,4-tetrahydroisoquinolin-7-yl)oxy)-1H-pyrrolo[2,3-b]pyridin-3-yl)pyridin-2-yl)acetamide] | < 3 | < 3 |
| NCc1ccc(Oc2ccnc3[nH]cc(-c4ccnc(NCc5ccccc5)c4)c23)cc1 [Example 15, 4-(4-(4-(aminomethyl)phenoxy)-1H-pyrrolo[2,3-b]pyridin-3-yl)-N-benzylpyridin-2-amine] | 3 to 30 | < 3 |
| Cc1ccc(CNc2cc(-c3c[nH]c4nccc(Oc5ccc6c(c5)CNCC6)c34)ccn2)nc1 [Example 37, N-((5-methylpyridin-2-yl)methyl)-4-(4-((1,2,3,4-tetrahydroisoquinolin-7-yl)oxy)-1H-pyrrolo[2,3-b]pyridin-3-yl)pyridin-2-amine] | 3 to 30 | < 3 |
| O=C(Cc1ccccc1)Nc1nnc(-c2c[nH]c3nccc(Oc4ccc5c(c4)CNCC5)c23)o1 [Example 14, 2-phenyl-N-(5-(4-((1,2,3,4-tetrahydroisoquinolin-7-yl)oxy)-1H-pyrrolo[2,3-b]pyridin-3-yl)-1,3,4-oxadiazol-2-yl)acetamide] | < 3 | < 3 |
| c1cc(-c2c[nH]c3nccc(Oc4ccc5c(c4)CNCC5)c23)cc(NCC2CC2)n1 [Example 36, N-(cyclopropylmethyl)-4-(4-((1,2,3,4-tetrahydroisoquinolin-7-yl)oxy)-1H-pyrrolo[2,3-b]pyridin-3-yl)pyridin-2-amine] | < 3 | < 3 |
| c1ccc(CNc2cc(-c3c[nH]c4nccc(Oc5cnc6c(c5)CNCC6)c34)ccn2)cc1 [Example 49, N-benzyl-4-(4-((5,6,7,8-tetrahydro-1,6-naphthyridin-3-yl)oxy)-1H-pyrrolo[2,3-b]pyridin-3-yl)pyridin-2-amine] | > 30 | > 30 |
| c1ccc(CNc2cncc(-c3c[nH]c4nccc(Oc5ccc6c(c5)CNCC6)c34)c2)cc1 [Example 51, N-benzyl-5-(4-((1,2,3,4-tetrahydroisoquinolin-7-yl)oxy)-1H-pyrrolo[2,3-b]pyridin-3-yl)pyridin-3-amine] | 3 to 30 | < 3 |
| NCc1cc(F)c(Oc2ccnc3[nH]cc(-c4ccnc(NCC5CC5)c4)c23)c(F)c1 [Example 8, 4-(4-(4-(aminomethyl)-2,6-difluorophenoxy)-1H-pyrrolo[2,3-b]pyridin-3-yl)-N-(cyclopropylmethyl)pyridin-2-amine] | < 3 | < 3 |
| c1cc(-c2c[nH]c3nccc(Oc4ccc5c(c4)CNCC5)c23)cc(NC[C@@H]2CCCO2)n1 [Example 18, (S)-N-((tetrahydrofuran-2-yl)methyl)-4-(4-((1,2,3,4-tetrahydroisoquinolin-7-yl)oxy)-1H-pyrrolo[2,3-b]pyridin-3-yl)pyridin-2-amine] | < 3 | < 3 |
| NCc1ccc(Oc2ccnc3[nH]cc(-c4cnn(Cc5ccncc5)c4)c23)c(F)c1 [Example 23, (3-fluoro-4-((3-(1-(pyridin-4-ylmethyl)-1H-pyrazol-4-yl)-1H-pyrrolo[2,3-b]pyridin-4-yl)oxy)phenyl)methanamine] | 3 to 30 | < 3 |
| NCc1cc(F)c(Oc2ccnc3[nH]cc(-c4ccnc(NC(=O)C5CC5)c4)c23)c(F)c1 [Example 11, N-(4-(4-(4-(aminomethyl)-2,6-difluorophenoxy)-1H-pyrrolo[2,3-b]pyridin-3-yl)pyridin-2-yl)cyclopropanecarboxamide] | < 3 | < 3 |
| c1cc(-c2c[nH]c3nccc(Oc4ccc5c(c4)CNCC5)c23)cc(NC[C@H]2CCCO2)n1 [Example 19, (R)-N-((tetrahydrofuran-2-yl)methyl)-4-(4-((1,2,3,4-tetrahydroisoquinolin-7-yl)oxy)-1H-pyrrolo[2,3-b]pyridin-3-yl)pyridin-2-amine] | < 3 | < 3 |

Next, values leading:

| Ki [1] [nM] | Ki [2] [nM] | Structure (SMILES) |
| --- | --- | --- |
| > 30 | > 30 | c1ccc(CNc2ccnc(-c3c[nH]c4nccc(Oc5ccc6c(c5)CNCC6)c34)n2)cc1 [Example 28, N-benzyl-2-(4-((1,2,3,4-tetrahydroisoquinolin-7-yl)oxy)-1H-pyrrolo[2,3-b]pyridin-3-yl)pyrimidin-4-amine] |
| < 3 | < 3 | c1cc(-c2c[nH]c3nccc(Oc4ccc5c(c4)CNCC5)c23)cc(NCC2CCOCC2)n1 [Example 38, N-((tetrahydro-2H-pyran-4-yl)methyl)-4-(4-((1,2,3,4-tetrahydroisoquinolin-7-yl)oxy)-1H-pyrrolo[2,3-b]pyridin-3-yl)pyridin-2-amine] |
| < 3 | < 3 | c1ccc(CCNc2cc(-c3c[nH]c4nccc(Oc5ccc6c(c5)CNCC6)c34)ncn2)cc1 [Example 53, N-phenethyl-6-(4-((1,2,3,4-tetrahydroisoquinolin-7-yl)oxy)-1H-pyrrolo[2,3-b]pyridin-3-yl)pyrimidin-4-amine] |
| < 3 | < 3 | O=S(=O)(CCNc1cc(-c2c[nH]c3nccc(Oc4ccc5c(c4)CNCC5)c23)ncn1)c1ccccc1 [Example 29, N-(2-(phenylsulfonyl)ethyl)-6-(4-((1,2,3,4-tetrahydroisoquinolin-7-yl)oxy)-1H-pyrrolo[2,3-b]pyridin-3-yl)pyrimidin-4-amine] |
| < 3 | < 3 | NCc1ccc(Oc2ccnc3[nH]cc(-c4cc(NCc5ccccc5)ncn4)c23)c(F)c1 [Example 31, 6-(4-(4-(aminomethyl)-2-fluorophenoxy)-1H-pyrrolo[2,3-b]pyridin-3-yl)-N-benzylpyrimidin-4-amine] |
| > 30 | > 30 | NCc1ccc(Oc2ccnc3[nH]cc(-c4cncc(OCc5ccccc5)c4)c23)cc1 [Example 2, (4-((3-(5-(benzyloxy)pyridin-3-yl)-1H-pyrrolo[2,3-b]pyridin-4-yl)oxy)phenyl)methanamine] |
| < 3 | < 3 | c1cncc(CCNc2cc(-c3c[nH]c4nccc(Oc5ccc6c(c5)CNCC6)c34)ncn2)c1 [Example 55, N-(2-(pyridin-3-yl)ethyl)-6-(4-((1,2,3,4-tetrahydroisoquinolin-7-yl)oxy)-1H-pyrrolo[2,3-b]pyridin-3-yl)pyrimidin-4-amine] |
| > 30 | > 30 | NCc1ccc(Oc2ccnc3[nH]cc(-c4cccc(OCc5ccccc5)c4)c23)cc1 [Example 3, (4-((3-(3-(benzyloxy)phenyl)-1H-pyrrolo[2,3-b]pyridin-4-yl)oxy)phenyl)methanamine] |
| < 3 | < 3 | c1ccc(CNc2nccc(-c3c[nH]c4nccc(Oc5ccc6c(c5)CNCC6)c34)n2)cc1 [Example 26, N-benzyl-4-(4-((1,2,3,4-tetrahydroisoquinolin-7-yl)oxy)-1H-pyrrolo[2,3-b]pyridin-3-yl)pyrimidin-2-amine] |
